The molecules below were run against T1, recombinant human secreted phospholipase A2 (Homo sapiens, UniProt P14555) (assay: Chromogenic assay for inhibitors of recombinant human secreted phospholipase A2 (Assay Example 1)). Conditions: compounds of formula 2; diheptanoyl thio-PC substrate, pH 7.5, absorbance at 405 nm.
T1 sequence (P14555 21-144): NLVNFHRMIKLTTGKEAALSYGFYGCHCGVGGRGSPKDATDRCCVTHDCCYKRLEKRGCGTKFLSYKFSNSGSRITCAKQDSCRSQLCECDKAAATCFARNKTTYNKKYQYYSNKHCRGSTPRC
Assay type: biochemical
From the text: The following chromogenic assay procedure was used to identify and evaluate inhibitors of recombinant human secreted phospholipase A2. The assay described herein has been adapted for high volume screening using 96 well microtiter plates. A general description of this assay method is found in the article, “Analysis of Human Synovial Fluid Phospholipase A2 on Short Chain Phosphatidylcholine-Mixed Micelles: Development of a Spectrophotometric Assay Suitable for a Microtiterplate Reader”, by Laure J. Reynolds, Lori L. Hughes, and Edward A Dennis, Analytical Biochemistry, 204, pp. 190-197, 1992 (the disclosure of which is incorporated herein by reference):
Bovine Serum Albumin (fatty acid free) (1 g/L)
(Sigma A-7030, product of Sigma Chemical Co. St. Louis Mo., USA) […]
pH 7.5 (adjust with NaOH)
Adjust pH to 4.5 with acetic acid
5,5′-dithiobis-2-nitrobenzoic acid
Racemic Diheptanoyl Thio—PC racemic 1,2-bis(heptanoylthio)-1,2-dideoxy-sn-glycero-3-phosphorylcholine TRITON X-100™ prepare at 6.249 mg/ml in reaction buffer to equal […]
TRITON X-100™ is a polyoxy ethylene non-ionic
A measured volume of racemic dipheptanoyl thio PC supplied in chloroform at a concentration of 100 mg/ml is taken to dryness and redissolved in 10 millimolar TRITON X-100™ nonionic detergent aqueous solution. Reaction Buffer is added to the solution, then DTNB to give the Reaction Mixture.
The reaction mixture thus obtained contains 1 mM diheptanoly thio-PC substrate, 0.29 mm Triton X-100™ detergent, and 0.12 mm DTMB in a buffered aqueous solution at pH 7.5.
1. Add 0.2 ml reaction mixture to all wells;
2. Add 10 ul test compound (or solvent blank) to appropriate wells, mix 20 seconds;
3. Add 50 nanograms of sPLA2 (10 microliters) to appropriate wells;
4. Incubate plate at 40° C. for 30 minutes;
5. Read absorbance of wells at 405 nanometers with an automatic plate reader.
All compounds were tested in triplicate. Typically, compounds were tested at a final concentration of 5 ug/ml. […] Lack of color development at 405 nanometers evidenced inhibition. Compounds initially found to be active were reassayed to confirm their activity and, if sufficiently active, IC50 values were determined. […] In all cases, % inhibition measured at 405 nanometers generated by enzyme reactions containing inhibitors relative to the uninhibited control reactions was determined. Each sample was titrated in triplicate and result values were averaged for plotting and calculation of IC50 values. IC50 were determined by plotting log concentration versus inhibition values in the range from 10-90% inhibition.

IC50	SMILES
151 nM	NC(=O)COc1cccc2c1c1c(C(N)=O)cccc1n2Cc1ccccc1 [Compound 2a, [[5-Carbamoyl-9-(phenylmethyl)carbazol-4-yl]oxy]acetamide]
273 nM	CCNC(=O)COc1cccc2c1c1c(C(N)=O)cccc1n2Cc1ccccc1 [Compound 2b, [[5-Carbamoyl-9-(phenylmethyl)carbazol-4-yl]oxy]-N-(ethyl)acetamide]

Same assay, conditions: compounds of formula 3; diheptanoyl thio-PC substrate, pH 7.5, absorbance at 405 nm

IC50	SMILES
383 nM	COC(=O)CNC(=O)COc1cccc2c1c1c(C(N)=O)cccc1n2Cc1ccccc1 [Compound 3a, N-[[[5-Carbamoyl-9-(phenylmethyl)carbazol-4-yl]oxy]acetyl]glycine methyl ester]
205 nM	COC(=O)[C@H](C)NC(=O)COc1cccc2c1c1c(C(N)=O)cccc1n2Cc1ccccc1 [Compound 3b, N-[[[5-Carbamoyl-9-(phenylmethyl)carbazol-4-yl]oxy]acetyl]-L-alanine Methyl Ester]
67.5 nM	COC(=O)[C@H](CC(C)C)NC(=O)COc1cccc2c1c1c(C(N)=O)cccc1n2Cc1ccccc1 [Compound 3c, N-[[[5-Carbamoyl-9-(phenylmethyl)carbazol-4-yl]oxy]acetyl]-L-leucine Methyl Ester]
513 nM	COC(=O)C[C@H](NC(=O)COc1cccc2c1c1c(C(N)=O)cccc1n2Cc1ccccc1)C(=O)OC [Compound 3d, N-[[[5-Carbamoyl-9-(phenylmethyl)carbazol-4-yl]oxy]acetyl]-L-aspartic Acid Dimethyl Ester]
709 nM	COC(=O)CC[C@H](NC(=O)COc1cccc2c1c1c(C(N)=O)cccc1n2Cc1ccccc1)C(=O)OC [Compound 3e, N-[[[5-Carbamoyl-9-(phenylmethyl)carbazol-4-yl]oxy]acetyl]-L-glutamic Acid Dimethyl Ester]
263 nM	COC(=O)[C@H](CCSC)NC(=O)COc1cccc2c1c1c(C(N)=O)cccc1n2Cc1ccccc1 [Compound 3f, N-[[[5-Carbamoyl-9-(phenylmethyl)carbazol-4-yl]oxy]acetyl]-L-methionine Methyl Ester]
8600 nM	COC(=O)[C@H](Cc1ccccc1)NC(=O)COc1cccc2c1c1c(C(N)=O)cccc1n2Cc1ccccc1 [Compound 3g, N-[[[5-Carbamoyl-9-(phenylmethyl)carbazol-4-yl]oxy]acetyl]-L-phenylalanine Methyl Ester]

Same assay, conditions: compounds of formula 4; diheptanoyl thio-PC substrate, pH 7.5, absorbance at 405 nm

IC50	SMILES
118 nM	NC(=O)c1cccc2c1c1c(OCC(=O)NCC(=O)O)cccc1n2Cc1ccccc1 [Compound 4a, N-[[[5-Carbamoyl-9-(phenylmethyl)carbazol-4-yl]oxy]acetyl]glycine]
16.1 nM	CC(C)C[C@H](NC(=O)COc1cccc2c1c1c(C(N)=O)cccc1n2Cc1ccccc1)C(=O)O [Compound 4c, N-[[[5-Carbamoyl-9-(phenylmethyl)carbazol-4-yl]oxy]acetyl]-L-leucine]
99.2 nM	NC(=O)c1cccc2c1c1c(OCC(=O)N[C@@H](CC(=O)O)C(=O)O)cccc1n2Cc1ccccc1 [Compound 4d, N-[[[5-Carbamoyl-9-(phenylmethyl)carbazol-4-yl]oxy]acetyl]-L-aspartic Acid]
61.2 nM	NC(=O)c1cccc2c1c1c(OCC(=O)N[C@@H](CCC(=O)O)C(=O)O)cccc1n2Cc1ccccc1 [Compound 4e, N-[[[5-Carbamoyl-9-(phenylmethyl)carbazol-4-yl]oxy]acetyl]-L-glutamic Acid]
103 nM	CSCC[C@H](NC(=O)COc1cccc2c1c1c(C(N)=O)cccc1n2Cc1ccccc1)C(=O)O [Compound 4f, N-[[[5-Carbamoyl-9-(phenylmethyl)carbazol-4-yl]oxy]acetyl]-L-methionine]
324 nM	NC(=O)c1cccc2c1c1c(OCC(=O)N[C@@H](Cc3ccccc3)C(=O)O)cccc1n2Cc1ccccc1 [Compound 4g, N-[[[5-Carbamoyl-9-(phenylmethyl)carbazol-4-yl]oxy]acetyl]-L-phenylalanine]

Reference: patent publication US20030096854A1, “Substituted tricyclics” (priority 2002, published 2003)
